Structures are written as SMILES. Read-outs that look alike come from different tables or passages of the source. Some results are limits rather than exact numbers.

Data set [1] is described as follows: Stability of inactivators at 37°C (spectrophotometric half life). The class given is physicochemical. How it is done: Inactivators (10mM in DMSO) were diluted to 0.1mM in prewarmed degassed buffer I (1mM EDTA, 50mM Tris pH 8.3) or PBS (pH 7-7.2). […] Samples were immediately transferred to a CARY13 spectrophotometer (cuvette block held at 37°C) and scanned at an appropriate wavelength (according to the spectral properties of the compound) at 3-10 minute intervals for up to 80 hours. The results were expressed as percentage absorbance change versus time and T1/2 values (half life) extrapolated from this.

Another data set has as its target T1, ATase (Rattus norvegicus, UniProt P24528).
T1 construct: endogenous in cells; host or cells: Yoshida
T1 sequence (P24528 1-209): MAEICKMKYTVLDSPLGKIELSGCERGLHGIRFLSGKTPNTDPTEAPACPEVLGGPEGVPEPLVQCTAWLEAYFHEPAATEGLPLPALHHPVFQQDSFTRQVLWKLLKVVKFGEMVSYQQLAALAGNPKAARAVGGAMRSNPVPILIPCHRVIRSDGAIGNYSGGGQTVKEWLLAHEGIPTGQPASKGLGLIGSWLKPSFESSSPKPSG
Description: Inactivation of ATase activity in Yoshida cells. The class given is cell-based. How it is done: Mammalian cells were cultured under standard conditions. For example, Raji (a human lymphoblastoid cell line from a Burkitt's lymphoma) cells were grown in suspension culture in RPMI medium supplemented with 10% horse serum. A375M cells are human melanoma cells from which the xenografts described below were established following subcutaneous injection into nude mice: WiDr cells are a human colon carcinoma cell line: Hamster+120 cells are a mitozolomide-selected subline of a Chinese hamster lung fibroblast V79 cell line called RJKO: Yoshida cells are a rat carcinosarcoma cell line and YRbus is a busulphan resistant subline thereof: XP cells are an SV40-transformed fibroblast cell line originally from the skin of a Xeroderma pigmentosum patient, pHMGhAT2b cells are a clone of these cells that have been transfected with a mammalian cell expression vector containing the human ATase cDNA and pHMGla cells are a clone that have been transfected with the expression vector only (i.e. one not containing the human ATase cDNA). Cell pellets were resuspended in cold (4°C) buffer I containing 2 µg/ml leupeptin and sonicated for 10 seconds at 12 µ peak to peak distance. After cooling in ice, the cells were sonicated for a further 10 seconds at 18 µ. Immediately after sonication, 0.01 volumes of 8.7 mg/ml phenylmethanesulphonylfluoride in ethanol was added and the sonicates centrifuged at 15 000 g for 10 minutes at 4°C to pellet cell debris. The supernatant was kept for determination of ATase activity (see below).
Cells were diluted to 10^6/ml in culture medium containing either the appropriate concentration of inactivator or an equivalent volume of vehicle (DMSO). Following incubation at 37°C for 2 hours the cells were harvested by centrifugation, washed twice with PBS and the resulting cell pellets (between 1-2 x 10^7 per pellet) stored at -20°C. ATase activity was determined as described above, in duplicate sonicated cell extracts and expressed as the percentage activity remaining based on that present in the untreated controls (for example 350-450 fm/mg in Raji cells).

The test system of data set [2] is Raji cells. In words: Sensitization of Raji cells to BCNU (XTT assay). The class given is cell-based, human. To be noted: BCNU, 2 hour pretreatment. How it is done:
(§1) Following a 2 hour incubation at 37°C, medium containing either increasing doses of BCNU, temozolomide or equivalent vehicle was added and the cells allowed to grow for 6 days. At this time XTT solution was added and the cells incubated for a further 4 hours at 37°C. The resulting red/orange formazan reaction product was quantified by measuring absorption at 450nm on a microtitre platereader.

For a further data set, the system named is A375M cells. In words: Sensitization of A375M cells to BCNU (MTT assay). The class given is cell-based, human. As to the method: Sensitization of A375M cells to the cytotoxic effects of BCNU was analysed by MTT assay ^24 differing from the XTT assay described above as follows. […] After 6 days MTT solution (4mg/ml) was added and cells incubated for 3 hours at 37°C. Medium was aspirated and the resulting purple formazan crystals were solubilised in DMSO (120μl) and cell viability was quantified by measuring absorption at 540nm using a microtitre plate reader.

In data set [3] the test system is Raji cells. In words: Sensitization of Raji cells to temozolomide (XTT assay). It counts as cell-based, human. To be noted: inactivator 0.1 to 5.0µM, Figures 3 and 4, in words. How it is done: as §1
The nature of data set [4]: Toxicity of inactivator in combination with BCNU in xenograft-bearing mice (survival). To be noted: mouse, in vivo, ip; in combination with BCNU, Figs. 9-13; read-out: death of treated animals. It counts as in vivo, nude mice. As to the method:
0X6 OPT, England (OLAC mice). […] For this reason lower doses were administered.
Xenograft tumour measurements were taken every 1-2 days by workers using digital calipers. Tumour volume was calculated using the formula (h x w x 1) π/6. The experimental animals were also weighed every 1-2 days. Measurements continued until tumours in the control animals reached the maximum allowable volume (i.e. 1cm x 1cm x 1cm).

In another data set the test system is human bone marrow cells. Description: Sensitization of bone marrow cells to temozolomide (GM-CFC assay). The class given is cell-based. To be noted: three samples tested (BeG: all three; B.4205: two of these), Fig. 14, in words. The text has this: For the granulocyte/macrophage colony-forming cell (GM-CFC) assay primary human bone marrow samples were obtained from patients undergoing cardiothoracic surgery. […] The colonies represented precursor cells of the granulocyte/macrophage lineage (huGM-CFC). Survival was expressed as a % of the number of colonies at zero dose temozolomide.

The nature of data set [5]: Inactivator toxicity in bone marrow cells (GM-CFC colonies, inactivator alone). It counts as cell-based, human. To be noted: human, bone marrow gm-cfc, inactivator 10uM, read-out: No. of colonies as % of control (ie no inactivator). The text has this: For the granulocyte/macrophage colony-forming cell (GM-CFC) assay primary human bone marrow samples were obtained from patients undergoing cardiothoracic surgery. […] The colonies represented precursor cells of the granulocyte/macrophage lineage (huGM-CFC). […]

In the case of `Nc1nc(OCc2ccccc2)c2nc[nH]c2n1` [O^6-benzylguanine, reference compound], the half-life at 100 µM in data set [1] (0.1mM in PBS (pH 7-7.2), read-out: T1/2(h) in PBS (converted)) was over 16 h; in data set [1] (0.1mM in buffer I (1mM EDTA, 50mM Tris pH 8.3), read-out: T1/2(h) in Buffer I (converted)) it was over 64 h. The same compound registered an IC50 on ATase of 140 nM. In addition, the “Raji sensitization (D90.^C/D90.^I) 0.5µM” value in the data set on Raji cells [2] (inactivator 0.5µM) is on record as “*2.0 ± 0.4”. Also, the “Raji sensitization (D90.^C/D90.^I) 1.0µM” value with Raji cells [2] (inactivator 1.0µM) is given as “*3.8 ± 1.8”. The “Raji sensitization (D90.^C/D90.^I) O.1µM” value in the data set with Raji cells [2] (inactivator O.1µM) was “*1.9 ± 0.7”. For the same compound, the “A375M sensitization (D50.^C/D50.^I) 0.5uM” value with A375M cells (inactivator 0.5uM 2 hours before) was 3.1. The “A375M sensitization (D50.^C/D50.^I) 1.0uM” value in the data set with A375M cells (inactivator 1.0uM 2 hours before) is listed as 2.3. Besides, in the data set on A375M cells (inactivator 5.0uM 2 hours before), the “A375M sensitization (D50.^C/D50.^I) 5.0uM” value came out at 4.2. The “dose response of sensitization of Raji cells to temozolomide” value in the data set with Raji cells [3] is reported as “clear dose response”. Further, the mortality in data set [4] was at most 70%. Moreover, the “sensitization of GM-CFCs in human bone marrow samples to the toxic effects of temozolomide” value in the data set with human bone marrow cells is on record as “sensitised”. In addition, the viability at 216 h, 10 µM was determined as 95% in data set [5] (Patient A); 46% in data set [5] (Patient B); 88% in data set [5] (Patient C); 88% in data set [5] (Patient D); 89% in data set [5] (Patient E).
